The values that follow come from patent US20250064762A1, “A SUBSTITUTED AROMATIC DICARBONIC ACID AMIDE AS AN INHIBITOR OF THE FERROPTOSIS SUPPRESSOR PROTEIN-1 (FSP1)” (JULIUS-MAXIMILIANS-UNIVERSITÄT WÜRZBURG, priority 2021, published 2025).

The subject of data set [1] is HT1080 cells, mouse embryonic fibroblasts (MEFs), Du145 and PC3. Put plainly: Cell viability (AquaBluer): ferroptosis inducers (FINs) with or without CPBA. The class given is cell-based, human. Particulars: 16 h. How it is done: (§1) Cells were seeded onto 96-well plates (5,000 cells per well), and treated with serial dilutions of ferroptosis-inducing compounds (erastin, BSO, RSL3, FIN56) or cytotoxic drugs (staurosporine, nocodazole, tunicamycin, paclitaxel, etoposide, menadione, rotenone, FCCP, carboplatin) in the absence or presence of CPBA or iFSP1 (100 μM or 10 μM, respectively; unless stated otherwise) or the DMSO solvent control. Ferroptotic cell death was evaluated by incubating in the absence or presence of liproxstatin-1 (100 nM), ferrostatin-1 (200 nM), or deferoxamine (100 μM). Cell viability was assessed after 16 h using AquaBluer as an indicator of viable cells according to the manufacturer's recommendations (MultiTarget Pharmaceuticals, LLC). Fluorescence (excitation, 540 nm; emission, 590 nm) was analyzed on a Clariostar microplater reader.
HT1080 cells, mouse embryonic fibroblasts (MEFs, non-transformed, non-immortalized) and human prostate carcinoma cell lines Du145 and PC3 were incubated with serial dilutions of ferroptosis inducers (FINs) erastin, BSO, RSL3 or FIN56 in the absence or presence of CPBA and/or the ferroptosis inhibitor liproxstatin-1 (HT1080, Du145, PC3: 200 μM CPBA, MEF: 100 μM CPBA; lip-1:100 nM), and cell viability was analyzed after 16 h using Aquabluer. […]
AUC values (AUC FIN+CPBA/AUC FIN+ctrl) were calculated as described above.

Data set [2] deals with T1, murine PGP (Mus musculus, UniProt Q8CHP8).
T1 construct: made in house
T1 sequence (Q8CHP8 1-321): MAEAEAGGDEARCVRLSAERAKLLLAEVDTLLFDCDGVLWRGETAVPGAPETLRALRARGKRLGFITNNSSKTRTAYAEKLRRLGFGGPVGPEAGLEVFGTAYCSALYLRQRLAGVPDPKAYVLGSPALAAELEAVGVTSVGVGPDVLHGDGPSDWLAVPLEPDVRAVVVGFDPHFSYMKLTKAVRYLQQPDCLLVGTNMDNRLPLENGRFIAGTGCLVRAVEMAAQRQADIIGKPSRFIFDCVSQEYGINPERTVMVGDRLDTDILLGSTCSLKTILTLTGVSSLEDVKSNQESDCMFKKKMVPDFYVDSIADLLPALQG
Put plainly: In vitro phosphoglycolate phosphatase assay (malachite green). The class given is biochemical. How it is done:
Recombinant, purified murine phosphoglycolate phosphatase (PGP) was expressed and purified as described (Seifried et al., 2014). Experiments were performed in TNM30 (30 mM triethanolamine, 30 mM NaCl, 5 mM MgCl2; PH 7.5), supplemented with 0.01% (v/v) Triton X-100 and 5 mM dithiothreitol (DTT). Assays were conducted at room temperature in a final reaction volume of 50 μL in 96-well microtiter plates. PGP (5.7 nM) was pre-incubated with the compounds or the DMSO solvent control for 10 min, and enzyme reactions were started by the addition of the substrate phosphoglycolate (PG, 200 μM). Buffer without enzyme served as a background control. Inorganic phosphate release from PG was detected with malachite green solution (Biomol Green; Enzo Life Sciences). The absorbance at 620 nm (A620) was measured on an Envision 2104 multilabel microtiter plate reader (Perkin Elmer Life Sciences). Released phosphate was determined by converting the values to nmol Pi with a phosphate standard curve. Data were analyzed with GraphPad Prism version 7.0.5. For IC50 determinations, loginhibitor versus response was calculated for a Hill slope of −1.
Free inorganic phosphate released by PG dephosphorylation was quantified using malachite green.

Data set [3] deals with IHH, AML12, RAW264.7. Put plainly: FIN56 toxicity in non-transformed hepatocytes and a monocyte/macrophage cell line. The class given is cell-based. Particulars: CPBA 100 μM, iFSP1 10 μM; 16 h. The protocol:
Cell culture media and supplements were from Thermo Fisher Scientific, unless specified otherwise. Mouse embryonic fibroblasts (MEFs) were generated from Pgp-wildtype (Pgp^fl/fl) or heterozygous Pgp-inactivated mouse embryos (Pgp^fl/D34N) as described (Segerer et al., 2016). […]
as §1, with “reader. […]” for “reader.”

“Also recorded” adds a separate entry of the source.

Consider `O=C(Nc1ccccc1C(=O)O)c1ccc(Oc2ccc(C(=O)Nc3ccccc3C(=O)O)cc2)cc1` [CPBA, 2-[[4-[4-[(2-carboxyphenyl)carbamoyl]phenoxy]benzoyl]amino]-benzoic acid], for which, in data set [1] (FINs erastin, BSO, RSL3 or FIN56, 200 μM CPBA (MEF: 100 μM)), the “effect on FIN-induced ferroptosis / cell viability” value is “increases the negative effect of FINs on cell viability; also recorded: strongly increases FIN-induced ferroptosis in all cell lines”. Moreover, the “concentration dependence of ferroptosis-sensitization” value in data set [1] (HT1080 and PC3 cells, serial dilutions of FINs±CPBA) is given as “ferroptosis-sensitization by CPBA is concentration-dependent”. Also, the “inhibition of PGP” value in data set [2] is recorded as “inhibitor of PGP”.
For the compound `Cc1ccc(-c2c(C#N)c(N)n3c(nc4ccccc43)c2C#N)cc1` [iFSP1, reference compound], the “toxicity of FIN56 in non-transformed cell lines on addition of the compound” value in data set [3] is “not markedly increased by the addition of CPBA or iFSP1”.
